The supplement of paper PMC10307832

What was measured:
Assay in all cases: relative viability (nuclei count vs DMSO), 5 days (fraction); higher = more cells survive
CX-5461 + Foretinib = compound: Cc1cnc(CNC(=O)c2c(=O)c3ccc(N4CCCN(C)CC4)nc3n3c2sc2ccccc23)cn1 [CX-5461] + COc1cc2c(Oc3ccc(NC(=O)C4(C(=O)Nc5ccc(F)cc5)CC4)cc3F)ccnc2cc1OCCCN1CCOCC1 [Foretinib] (partner 0.25 µM)
Method in brief: (§1)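 Relative viability equals treated-well nuclei counts divided by vehicle-well nuclei counts. Counts came from 4× images of lung cancer cell lines grown in 1536-well plates for 5 days after pin-tool dosing on the day after seeding. Dosing used one drug alone or a fixed anchor-drug dose plus five library-drug doses (not always all listed) in √10 steps, and values are medians of duplicate plates.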

CX-5461 + Crizotinib = compound: Cc1cnc(CNC(=O)c2c(=O)c3ccc(N4CCCN(C)CC4)nc3n3c2sc2ccccc23)cn1 [CX-5461] + C[C@@H](Oc1cc(-c2cnn(C3CCNCC3)c2)cnc1N)c1c(Cl)ccc(F)c1Cl [Crizotinib] (partner 1 µM)
Method in brief: as §1

CX-5461 + Linsitinib = compound: Cc1cnc(CNC(=O)c2c(=O)c3ccc(N4CCCN(C)CC4)nc3n3c2sc2ccccc23)cn1 [CX-5461] + C[C@]1(O)C[C@@H](c2nc(-c3ccc4ccc(-c5ccccc5)nc4c3)c3c(N)nccn32)C1 [Linsitinib] (partner 1 µM)
Method in brief: as §1

IMD-0354 + Pictilisib = compound: O=C(Nc1cc(C(F)(F)F)cc(C(F)(F)F)c1)c1cc(Cl)ccc1O [IMD-0354] + CS(=O)(=O)N1CCN(Cc2cc3nc(-c4cccc5[nH]ncc45)nc(N4CCOCC4)c3s2)CC1 [Pictilisib] (partner 1 µM)
Method in brief: as §1

Work on LC-2-ad yielded a relative viability (CX-5461 + Foretinib; first compound 0.01 µM) of 0.919, a relative viability (CX-5461 + Foretinib; first compound 0.03162 µM) of 1.01 and a relative viability (CX-5461 + Foretinib; first compound 0.1 µM) of 0.835. For the same cell line, the relative viability (CX-5461 + Foretinib; first compound 0.3162 µM) was 0.88, the relative viability (CX-5461 + Foretinib; first compound 1 µM) was 0.504 and the relative viability (CX-5461 + Crizotinib; first compound 0.01 µM) was 0.491. It also gave a relative viability (CX-5461 + Crizotinib; first compound 0.03162 µM) of 0.522, a relative viability (CX-5461 + Crizotinib; first compound 0.1 µM) of 0.363 and a relative viability (CX-5461 + Crizotinib; first compound 0.3162 µM) of 0.286. The relative viability (CX-5461 + Crizotinib; first compound 1 µM) was 0.454, the relative viability (CX-5461 + Linsitinib; first compound 0.01 µM) was 0.808 and the relative viability (CX-5461 + Linsitinib; first compound 0.03162 µM) was 0.886. The relative viability (CX-5461 + Linsitinib; first compound 0.1 µM) was 0.829, the relative viability (CX-5461 + Linsitinib; first compound 0.3162 µM) was 0.858 and the relative viability (CX-5461 + Linsitinib; first compound 1 µM) was 0.833. The relative viability (IMD-0354 + Pictilisib; first compound 0.04 µM) was 0.494, the relative viability (IMD-0354 + Pictilisib; first compound 0.1265 µM) was 0.424 and the relative viability (IMD-0354 + Pictilisib; first compound 0.4 µM) was 0.404. The relative viability (IMD-0354 + Pictilisib; first compound 1.265 µM) was 0.106 and the relative viability (IMD-0354 + Pictilisib; first compound 4 µM) was 0.136.
For CAL-12T, the relative viability (CX-5461 + Foretinib; first compound 0.01 µM) was 1.03, the relative viability (CX-5461 + Foretinib; first compound 0.03162 µM) was 1.08 and the relative viability (CX-5461 + Foretinib; first compound 0.1 µM) was 0.966. The relative viability (CX-5461 + Foretinib; first compound 0.3162 µM) was 0.945, the relative viability (CX-5461 + Foretinib; first compound 1 µM) was 0.741 and the relative viability (CX-5461 + Crizotinib; first compound 0.01 µM) was 0.564. The relative viability (CX-5461 + Crizotinib; first compound 0.03162 µM) was 0.588, the relative viability (CX-5461 + Crizotinib; first compound 0.3162 µM) was 0.653 and the relative viability (CX-5461 + Crizotinib; first compound 1 µM) was 0.365. The relative viability (CX-5461 + Linsitinib; first compound 0.01 µM) was 0.874, the relative viability (CX-5461 + Linsitinib; first compound 0.03162 µM) was 1.05 and the relative viability (CX-5461 + Linsitinib; first compound 0.1 µM) was 0.843. It also gave a relative viability (CX-5461 + Linsitinib; first compound 0.3162 µM) of 0.868, a relative viability (CX-5461 + Linsitinib; first compound 1 µM) of 0.622 and a relative viability (IMD-0354 + Pictilisib; first compound 0.04 µM) of 0.373. The relative viability (IMD-0354 + Pictilisib; first compound 0.1265 µM) was 0.548, the relative viability (IMD-0354 + Pictilisib; first compound 0.4 µM) was 0.315 and the relative viability (IMD-0354 + Pictilisib; first compound 1.265 µM) was 0.189. For the same cell line, the relative viability (IMD-0354 + Pictilisib; first compound 4 µM) was 0.178.
RERF-LC-KJ showed a relative viability (CX-5461 + Foretinib; first compound 0.01 µM) of 0.893, a relative viability (CX-5461 + Foretinib; first compound 0.03162 µM) of 0.964 and a relative viability (CX-5461 + Foretinib; first compound 0.1 µM) of 0.998. For the same cell line, the relative viability (CX-5461 + Foretinib; first compound 0.3162 µM) was 0.765, the relative viability (CX-5461 + Foretinib; first compound 1 µM) was 0.815 and the relative viability (CX-5461 + Crizotinib; first compound 0.01 µM) was 0.807. It also gave a relative viability (CX-5461 + Crizotinib; first compound 0.03162 µM) of 0.562, a relative viability (CX-5461 + Crizotinib; first compound 0.1 µM) of 0.833 and a relative viability (CX-5461 + Crizotinib; first compound 0.3162 µM) of 0.774. For the same cell line, the relative viability (CX-5461 + Crizotinib; first compound 1 µM) was 0.778, the relative viability (CX-5461 + Linsitinib; first compound 0.01 µM) was 0.834 and the relative viability (CX-5461 + Linsitinib; first compound 0.03162 µM) was 0.944. It also gave a relative viability (CX-5461 + Linsitinib; first compound 0.1 µM) of 0.972, a relative viability (CX-5461 + Linsitinib; first compound 0.3162 µM) of 0.866 and a relative viability (CX-5461 + Linsitinib; first compound 1 µM) of 0.797. It also gave a relative viability (IMD-0354 + Pictilisib; first compound 0.04 µM) of 0.518, a relative viability (IMD-0354 + Pictilisib; first compound 0.1265 µM) of 0.595 and a relative viability (IMD-0354 + Pictilisib; first compound 0.4 µM) of 0.542. It also gave a relative viability (IMD-0354 + Pictilisib; first compound 1.265 µM) of 0.233 and a relative viability (IMD-0354 + Pictilisib; first compound 4 µM) of 0.226.
NCI-H1650 gave a relative viability (CX-5461 + Foretinib; first compound 0.01 µM) of 1.35, a relative viability (CX-5461 + Foretinib; first compound 0.03162 µM) of 1.45 and a relative viability (CX-5461 + Foretinib; first compound 0.1 µM) of 0.958. It also gave a relative viability (CX-5461 + Foretinib; first compound 0.3162 µM) of 0.928, a relative viability (CX-5461 + Foretinib; first compound 1 µM) of 0.385 and a relative viability (CX-5461 + Crizotinib; first compound 0.01 µM) of 1.08. For the same cell line, the relative viability (CX-5461 + Crizotinib; first compound 0.03162 µM) was 0.996, the relative viability (CX-5461 + Crizotinib; first compound 0.3162 µM) was 0.948 and the relative viability (CX-5461 + Crizotinib; first compound 1 µM) was 0.149. For the same cell line, the relative viability (IMD-0354 + Pictilisib; first compound 0.04 µM) was 0.722, the relative viability (IMD-0354 + Pictilisib; first compound 0.1265 µM) was 0.484 and the relative viability (IMD-0354 + Pictilisib; first compound 0.4 µM) was 0.434. The relative viability (IMD-0354 + Pictilisib; first compound 1.265 µM) was 0.166 and the relative viability (IMD-0354 + Pictilisib; first compound 4 µM) was 0.191.
BEN showed a relative viability (CX-5461 + Foretinib; first compound 0.01 µM) of 0.781, a relative viability (CX-5461 + Foretinib; first compound 0.03162 µM) of 0.606 and a relative viability (CX-5461 + Foretinib; first compound 0.1 µM) of 0.739. For the same cell line, the relative viability (CX-5461 + Foretinib; first compound 0.3162 µM) was 0.525, the relative viability (CX-5461 + Foretinib; first compound 1 µM) was 0.636 and the relative viability (CX-5461 + Crizotinib; first compound 0.01 µM) was 1. The relative viability (CX-5461 + Crizotinib; first compound 0.03162 µM) was 0.905, the relative viability (CX-5461 + Crizotinib; first compound 0.1 µM) was 0.912 and the relative viability (CX-5461 + Crizotinib; first compound 0.3162 µM) was 0.832. For the same cell line, the relative viability (CX-5461 + Crizotinib; first compound 1 µM) was 0.752, the relative viability (CX-5461 + Linsitinib; first compound 0.01 µM) was 1.01 and the relative viability (CX-5461 + Linsitinib; first compound 0.03162 µM) was 0.967. It also gave a relative viability (CX-5461 + Linsitinib; first compound 0.1 µM) of 1.01, a relative viability (CX-5461 + Linsitinib; first compound 0.3162 µM) of 0.827 and a relative viability (CX-5461 + Linsitinib; first compound 1 µM) of 0.727. For the same cell line, the relative viability (IMD-0354 + Pictilisib; first compound 0.04 µM) was 0.639, the relative viability (IMD-0354 + Pictilisib; first compound 0.1265 µM) was 0.57 and the relative viability (IMD-0354 + Pictilisib; first compound 0.4 µM) was 0.369. For the same cell line, the relative viability (IMD-0354 + Pictilisib; first compound 1.265 µM) was 0.294 and the relative viability (IMD-0354 + Pictilisib; first compound 4 µM) was 0.211.
EMC-BAC-2 was tested, and the relative viability (CX-5461 + Foretinib; first compound 0.01 µM) was 0.988, the relative viability (CX-5461 + Foretinib; first compound 0.03162 µM) was 1.13 and the relative viability (CX-5461 + Foretinib; first compound 0.1 µM) was 1.06. For the same cell line, the relative viability (CX-5461 + Foretinib; first compound 0.3162 µM) was 0.928, the relative viability (CX-5461 + Foretinib; first compound 1 µM) was 0.885 and the relative viability (CX-5461 + Crizotinib; first compound 0.01 µM) was 0.782. The relative viability (CX-5461 + Crizotinib; first compound 0.03162 µM) was 0.839, the relative viability (CX-5461 + Crizotinib; first compound 0.1 µM) was 0.725 and the relative viability (CX-5461 + Crizotinib; first compound 0.3162 µM) was 0.541. For the same cell line, the relative viability (CX-5461 + Crizotinib; first compound 1 µM) was 0.74, the relative viability (CX-5461 + Linsitinib; first compound 0.01 µM) was 0.843 and the relative viability (CX-5461 + Linsitinib; first compound 0.03162 µM) was 0.914. For the same cell line, the relative viability (CX-5461 + Linsitinib; first compound 0.1 µM) was 0.828, the relative viability (CX-5461 + Linsitinib; first compound 0.3162 µM) was 0.824 and the relative viability (CX-5461 + Linsitinib; first compound 1 µM) was 0.815. The relative viability (IMD-0354 + Pictilisib; first compound 0.04 µM) was 0.647, the relative viability (IMD-0354 + Pictilisib; first compound 0.1265 µM) was 0.545 and the relative viability (IMD-0354 + Pictilisib; first compound 0.4 µM) was 0.41. For the same cell line, the relative viability (IMD-0354 + Pictilisib; first compound 1.265 µM) was 0.416 and the relative viability (IMD-0354 + Pictilisib; first compound 4 µM) was 0.225.
LU99A was tested, and the relative viability (CX-5461 + Foretinib; first compound 0.01 µM) was 0.818, the relative viability (CX-5461 + Foretinib; first compound 0.03162 µM) was 0.797 and the relative viability (CX-5461 + Foretinib; first compound 0.1 µM) was 0.764. The relative viability (CX-5461 + Foretinib; first compound 0.3162 µM) was 0.495, the relative viability (CX-5461 + Foretinib; first compound 1 µM) was 0.798 and the relative viability (CX-5461 + Crizotinib; first compound 0.01 µM) was 0.571. The relative viability (CX-5461 + Crizotinib; first compound 0.03162 µM) was 0.552, the relative viability (CX-5461 + Crizotinib; first compound 0.1 µM) was 0.495 and the relative viability (CX-5461 + Crizotinib; first compound 0.3162 µM) was 0.344. For the same cell line, the relative viability (CX-5461 + Crizotinib; first compound 1 µM) was 0.453, the relative viability (CX-5461 + Linsitinib; first compound 0.01 µM) was 0.562 and the relative viability (CX-5461 + Linsitinib; first compound 0.03162 µM) was 0.575. The relative viability (CX-5461 + Linsitinib; first compound 0.1 µM) was 0.494, the relative viability (CX-5461 + Linsitinib; first compound 0.3162 µM) was 0.345 and the relative viability (CX-5461 + Linsitinib; first compound 1 µM) was 0.53. The relative viability (IMD-0354 + Pictilisib; first compound 0.04 µM) was 0.287, the relative viability (IMD-0354 + Pictilisib; first compound 0.1265 µM) was 0.304 and the relative viability (IMD-0354 + Pictilisib; first compound 0.4 µM) was 0.357. It also gave a relative viability (IMD-0354 + Pictilisib; first compound 1.265 µM) of 0.152 and a relative viability (IMD-0354 + Pictilisib; first compound 4 µM) of 0.156.
